In assay [1] the target is T1, human JAK2 kinase domain (JH1) (Homo sapiens, UniProt O60674).
T1 construct: recombinantly generated catalytic kinase (also known as JH1) domain of human JAK1, JAK2, JAK3 and TYK2
Nature of the assay: JH1 biochemical assay for JAK2 (ADP-Glo kinase assay, recombinant JH1 catalytic domain, JAK3-974 peptide, 15 μM ATP). In short, it runs like this: (§1)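 Kinase 4 nM JAK1 / 0.2 nM JAK2 / 0.3 nM JAK3 / 2 nM TYK2; 50 μM peptide; 100 min. Unused ATP depleted, ADP→ATP, luciferase luminescence. 11-pt 3-fold series from 10 or 1 μM; normalized, 4PL fit → IC50.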

Assay [2] has as its target T2, human JAK3 kinase domain (JH1) (Homo sapiens, UniProt P52333).
T2 construct: recombinantly generated catalytic kinase (also known as JH1) domain of human JAK1, JAK2, JAK3 and TYK2
Nature of the assay: JH1 biochemical assay for JAK3 (ADP-Glo kinase assay, recombinant JH1 catalytic domain, JAK3-974 peptide, 4 μM ATP). In short, it runs like this:
as §1

Assay [3] has as its target T3, human TYK2 kinase domain (JH1) (Homo sapiens, UniProt P29597).
T3 construct: recombinantly generated catalytic kinase (also known as JH1) domain of human JAK1, JAK2, JAK3 and TYK2
T3 sequence (P29597 897-1176 limits assumed): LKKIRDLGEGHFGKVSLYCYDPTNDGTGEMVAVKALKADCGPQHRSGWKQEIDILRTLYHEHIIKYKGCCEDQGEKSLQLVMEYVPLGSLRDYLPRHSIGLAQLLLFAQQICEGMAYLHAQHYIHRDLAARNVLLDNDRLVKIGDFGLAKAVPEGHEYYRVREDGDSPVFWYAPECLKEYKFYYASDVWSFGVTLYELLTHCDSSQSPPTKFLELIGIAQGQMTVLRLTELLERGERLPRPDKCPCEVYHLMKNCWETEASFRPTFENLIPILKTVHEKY
Description: JH1 biochemical assay for TYK2 (ADP-Glo kinase assay, recombinant JH1 catalytic domain, JAK3-974 peptide, 10 μM ATP). The essentials:
as §1

Assay [4] addresses T4, human JAK1 kinase domain (JH1) (Homo sapiens, UniProt P23458).
T4 construct: recombinantly generated catalytic kinase (also known as JH1) domain of human JAK1, JAK2, JAK3 and TYK2
Nature of the assay: JH1 biochemical assay for JAK1 (ADP-Glo kinase assay, recombinant JH1 catalytic domain, JAK3-342 peptide, 35 μM ATP). The essentials:
as §1

This passage reports IC50 results from patent publication US20260297085A1, “1 H-PYRROLO[2,3-B]PYRIDIN-4-YL]-2-OXOPYRROLIDINE-3-CARBONITRILE DERIVATIVES AS TYROSINE KINASE 2 (TYK2) INHIBITORS FOR THE TREATMENT OF INFLAMMATORY DISEASES” (BIOGEN MA INC., priority 2023, published 2026).

Counter-ions that a name gives are not always drawn.

T4 sequence (P23458 875-1153 limits assumed): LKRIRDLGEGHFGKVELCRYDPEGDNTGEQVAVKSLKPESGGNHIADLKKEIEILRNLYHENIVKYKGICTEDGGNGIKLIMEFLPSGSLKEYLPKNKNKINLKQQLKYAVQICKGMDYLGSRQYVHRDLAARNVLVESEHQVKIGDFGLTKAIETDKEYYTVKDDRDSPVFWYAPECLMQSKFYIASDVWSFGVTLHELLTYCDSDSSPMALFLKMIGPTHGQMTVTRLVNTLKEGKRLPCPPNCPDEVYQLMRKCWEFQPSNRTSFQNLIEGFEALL
T2 sequence (P52333 822-1111 limits assumed): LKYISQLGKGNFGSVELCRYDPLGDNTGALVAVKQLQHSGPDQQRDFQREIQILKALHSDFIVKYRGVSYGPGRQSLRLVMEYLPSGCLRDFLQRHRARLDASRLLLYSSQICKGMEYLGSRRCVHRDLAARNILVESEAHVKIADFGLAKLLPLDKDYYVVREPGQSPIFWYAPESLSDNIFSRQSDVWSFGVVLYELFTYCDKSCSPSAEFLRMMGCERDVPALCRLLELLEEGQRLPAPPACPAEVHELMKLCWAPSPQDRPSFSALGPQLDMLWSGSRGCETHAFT
T1 sequence (O60674 849-1124 limits assumed): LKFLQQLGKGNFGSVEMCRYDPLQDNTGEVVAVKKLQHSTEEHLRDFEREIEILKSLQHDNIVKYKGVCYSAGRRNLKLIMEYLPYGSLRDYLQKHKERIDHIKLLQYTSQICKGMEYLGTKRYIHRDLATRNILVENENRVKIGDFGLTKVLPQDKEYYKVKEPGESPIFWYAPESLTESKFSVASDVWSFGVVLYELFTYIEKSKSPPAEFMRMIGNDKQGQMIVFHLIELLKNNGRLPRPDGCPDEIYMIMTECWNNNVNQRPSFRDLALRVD

For the compound `C[C@@H]1CN(c2nc(-c3cccc(F)n3)cn3nccc23)C(=O)[C@]1(C#N)C1CC1` [Example 255, (3R,4S)-3-cyclopropyl-1-(6-(6-fluoropyridin-2-yl)pyrazolo[1,5-a]pyrazin-4-yl)-4-methyl-2-oxopyrrolidine-3-carbonitrile trifluoroacetate], the concentration for half-maximal inhibition (IC50) in assay [1] (JAK2 JH1, ADP-Glo) was greater than 10 µM; in assay [2] (JAK3 JH1, ADP-Glo), 0.1 to 1 µM; in assay [3] (TYK2 JH1, ADP-Glo) it was 0.02 to 0.05 µM; in assay [4] (JAK1 JH1, ADP-Glo), less than 0.1 µM.
Take `C[C@@H]1CN(c2ccnn3cc(-c4nccc(O)c4C#N)cc23)C(=O)[C@]1(C#N)C1CC1` [Example 129, 2-(4-((3R,4S)-3-cyano-3-cyclopropyl-4-methyl-2-oxopyrrolidin-1-yl)pyrrolo[1,2-b]pyridazin-6-yl)-4-hydroxynicotinonitrile trifluoroacetate]: the IC50 in assay [1] (JH1 kinase domain, ADP-Glo) is greater than 10 µM; in assay [2] (JH1 kinase domain, ADP-Glo), greater than 10 µM; in assay [3] (JH1 kinase domain, ADP-Glo) it was greater than 0.1 µM; in assay [4] (JH1 kinase domain, ADP-Glo), greater than 10 µM.
`C[C@@H]1CN(c2ccnn3cc(-c4cnccc4C(F)(F)F)cc23)C(=O)[C@]1(C#N)C1CC1` [Example 179, (3R,4S)-3-cyclopropyl-4-methyl-2-oxo-1-(6-(4-(trifluoromethyl)pyridin-3-yl)pyrrolo[1,2-b]pyridazin-4-yl)pyrrolidine-3-carbonitrile]: the concentration for half-maximal inhibition (IC50) was greater than 10 µM in assay [1] (JH1 kinase domain, ADP-Glo); greater than 10 µM in assay [2] (JH1 kinase domain, ADP-Glo); greater than 0.1 µM in assay [3] (JH1 kinase domain, ADP-Glo); greater than 10 µM in assay [4] (JH1 kinase domain, ADP-Glo).
`Cn1cc(-c2cc3c(N4CC[C@@](CC#N)(C5CC5)C4=O)ccnn3c2)cn1` [Example 27, (R)-2-(3-cyclopropyl-1-(6-(1-methyl-1H-pyrazol-4-yl)pyrrolo[1,2-b]pyridazin-4-yl)-2-oxopyrrolidin-3-yl)acetonitrile]: the IC50 was 1 to 5 µM in assay [1] (JH1 kinase domain, ADP-Glo); 1 to 5 µM in assay [2] (JH1 kinase domain, ADP-Glo); greater than 0.1 µM in assay [3] (JH1 kinase domain, ADP-Glo); 1 to 5 µM in assay [4] (JH1 kinase domain, ADP-Glo).
In the case of `C[C@@H]1CN(c2nn(-c3cccc(=O)n3C)c3cnccc23)C(=O)[C@]1(C#N)C1CC1` [Example 279, (3R,4S)-3-cyclopropyl-4-methyl-1-(1-(1-methyl-6-oxo-1,6-dihydropyridin-2-yl)-1H-pyrazolo[3,4-c]pyridin-3-yl)-2-oxopyrrolidine-3-carbonitrile], the IC50 is greater than 10 µM in assay [1] (JAK2 JH1, ADP-Glo); greater than 10 µM in assay [2] (JAK3 JH1, ADP-Glo); greater than 0.1 µM in assay [3] (TYK2 JH1, ADP-Glo); greater than 10 µM in assay [4] (JAK1 JH1, ADP-Glo).
With `COc1cc(-c2cn3nccc3c(N3C[C@@H](C)[C@@](C#N)(C4CC4)C3=O)n2)c(OC)nn1` [Example 253, (3R,4S)-3-cyclopropyl-1-(6-(3,6-dimethoxypyridazin-4-yl)pyrazolo[1,5-a]pyrazin-4-yl)-4-methyl-2-oxopyrrolidine-3-carbonitrile trifluoroacetate], the IC50 is greater than 10 µM in assay [1] (JAK2 JH1, ADP-Glo); 5 to 10 µM in assay [2] (JAK3 JH1, ADP-Glo); 0.02 to 0.05 µM in assay [3] (TYK2 JH1, ADP-Glo); 1 to 5 µM in assay [4] (JAK1 JH1, ADP-Glo).
For the compound `C[C@@H]1CN(c2ccnn3cc(-c4cncc(Cl)c4)cc23)C(=O)[C@]1(C#N)C1CC1` [Example 87, (3R,4S)-1-(6-(5-chloropyridin-3-yl)pyrrolo[1,2-b]pyridazin-4-yl)-3-cyclopropyl-4-methyl-2-oxopyrrolidine-3-carbonitrile], the IC50 was greater than 10 µM in assay [1] (JH1 kinase domain, ADP-Glo); greater than 10 µM in assay [2] (JH1 kinase domain, ADP-Glo); 0.02 to 0.05 µM in assay [3] (JH1 kinase domain, ADP-Glo); 5 to 10 µM in assay [4] (JH1 kinase domain, ADP-Glo).
As for `C[C@@H]1CN(c2ccnn3cc(-c4ccc(N(C)C(=O)OC(C)(C)C)nc4)cc23)C(=O)[C@]1(C#N)C1CC1` [Example 95, tert-butyl (5-(4-((3R,4S)-3-cyano-3-cyclopropyl-4-methyl-2-oxopyrrolidin-1-yl)pyrrolo[1,2-b]pyridazin-6-yl)pyridin-2-yl)(methyl)carbamate], the IC50 lay in the range of 0.1 to 1 µM in assay [1] (JH1 kinase domain, ADP-Glo); 0.1 to 1 µM in assay [2] (JH1 kinase domain, ADP-Glo); 0.005 to 0.02 µM in assay [3] (JH1 kinase domain, ADP-Glo); 0.1 to 1 µM in assay [4] (JH1 kinase domain, ADP-Glo).
Take `CC[C@@]1(C#N)CCN(c2ccnn3cc(-c4cnn(C)c4)cc23)C1=O` (single isomer, unassigned) [Example 43]: the 50% inhibitory concentration (IC50) is greater than 10 µM in assay [1] (JH1 kinase domain, ADP-Glo); greater than 10 µM in assay [2] (JH1 kinase domain, ADP-Glo); greater than 0.1 µM in assay [3] (JH1 kinase domain, ADP-Glo); greater than 10 µM in assay [4] (JH1 kinase domain, ADP-Glo).
As to `COc1cccnc1-c1cc2c(N3C[C@@H](C)[C@@](C#N)(C4CC4)C3=O)ccnn2c1` [Example 146, (3R,4S)-3-cyclopropyl-1-(6-(3-methoxypyridin-2-yl)pyrrolo[1,2-b]pyridazin-4-yl)-4-methyl-2-oxopyrrolidine-3-carbonitrile trifluoroacetate], the IC50 is 5 to 10 µM in assay [1] (JH1 kinase domain, ADP-Glo); 5 to 10 µM in assay [2] (JH1 kinase domain, ADP-Glo); greater than 0.1 µM in assay [3] (JH1 kinase domain, ADP-Glo); 1 to 5 µM in assay [4] (JH1 kinase domain, ADP-Glo).
